The target of test [1] is T1, vasopressin receptors (V2 -receptors) in the porcine renal medullary membrane (Sus scrofa, UniProt P32307).
T1 construct: the porcine renal medullary membrane; It is derived from the equation for; from tissue; host or cells: porcine (hog) kidney medullary membranes
As to the kind of experiment: [3H]-LVP binding, porcine renal medullary membrane (Kbind). The note with it: affinity of ligand for receptor in porcine renal medullary membrane; from IC50 of [3H]-LVP binding, Kb = IC50/(1 + L/KD). On the procedure: (§1) V2 -antagonistic activity toward the natural anti-diuretic hormone (anti-ADH activity) is determined, in vitro, in the medullary tissue of hog or human kidneys and, in vivo, in the hydropenic rat. The in vitro assay procedures for vasopressin stimulated adenylate cyclase activation or vasopressin binding activity are described by F. Stassen et al., J. Pharmacology and Experimental Therapeutics, 223, 50-54 (1982). V1 -antagonistic activity is determined by procedures using the rat thoracic aortic tissue and plasma membranes of rat liver. These procedures are described in the noted Stassen publication and in a publication at the lst International Conference on Diuretics, Miami, Fla., March (1984). Oxytocin antagonism is determined as described by W. Sawyer et al., Endocrinology, 106 81 (1979). | ^a Kbind is a measure of the affinity of ligand for receptor in | the porcine renal medullary membrane. It is derived from the equation for | competitive inhibition Kb = IC50 /(1 + L/KD) where | IC50 is the concentration of the ligand for 50% inhibition of [^ | H]-LVP binding, L is the concentration of the ligand, and KD is the | dissociation constant of [ ^3 H]-LVP.

The target in test [2] is T2, V1 receptor, human liver membrane (Homo sapiens, UniProt P37288).
T2 construct: from tissue; host or cells: human liver membranes
T2 sequence (P37288 whole entry): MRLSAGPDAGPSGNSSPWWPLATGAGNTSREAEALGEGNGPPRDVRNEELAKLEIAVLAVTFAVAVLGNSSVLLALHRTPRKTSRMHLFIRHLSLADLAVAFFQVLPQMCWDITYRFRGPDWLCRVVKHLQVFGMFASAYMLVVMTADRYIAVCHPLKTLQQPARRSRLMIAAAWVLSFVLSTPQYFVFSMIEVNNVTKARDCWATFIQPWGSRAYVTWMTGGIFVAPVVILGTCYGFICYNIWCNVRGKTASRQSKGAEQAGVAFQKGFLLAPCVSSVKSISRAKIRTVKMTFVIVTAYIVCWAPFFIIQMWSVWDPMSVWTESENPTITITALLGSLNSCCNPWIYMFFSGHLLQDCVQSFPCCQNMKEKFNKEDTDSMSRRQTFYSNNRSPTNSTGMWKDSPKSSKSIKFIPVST
As to the kind of experiment: Binding to human liver membrane (V1 receptor). The note with it: read-out: Kbind human liver (V1 receptor). The procedure:
as §1, with “(1979).” for “(1979). | ^a Kbind is a measure of the affinity of ligand for receptor in | the porcine renal medullary membrane. It is derived from the equation for | competitive inhibition Kb = IC50 /(1 + L/KD) where | IC50 is the concentration of the ligand for 50% inhibition of [^ | H]-LVP binding, L is the concentration of the ligand, and KD is the | dissociation constant of [ ^3 H]-LVP.”
^d Kbind relates to human liver membrane activity.

Numbered stars: 1 amine (or outer) side, 2 acyl side, 3 side chain; on linkers, the order of the positions; unused ones are H or OH. Bridge positions count the residues as written; N and C are the ends. Square brackets hold non-standard residues; d marks the D form. Peptide text beside a SMILES is read from it. X1 = O=C(CC1(S[*:2])CCCCC1)[*:1]

T1 sequence (P32307 whole entry): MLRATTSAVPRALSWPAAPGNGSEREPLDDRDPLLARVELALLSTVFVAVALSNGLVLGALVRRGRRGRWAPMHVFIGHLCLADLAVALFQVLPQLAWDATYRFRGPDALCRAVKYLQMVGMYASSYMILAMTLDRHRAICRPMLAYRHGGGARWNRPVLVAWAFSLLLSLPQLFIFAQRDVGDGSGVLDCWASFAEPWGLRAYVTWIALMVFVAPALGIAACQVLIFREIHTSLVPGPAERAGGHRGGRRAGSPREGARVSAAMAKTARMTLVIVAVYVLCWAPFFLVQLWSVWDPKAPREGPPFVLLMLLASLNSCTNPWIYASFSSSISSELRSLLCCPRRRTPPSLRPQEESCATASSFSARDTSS

Take `CCOc1ccc(C[C@H]2NC(=O)CC3(CCCCC3)SSC[C@@H](C(=O)N[C@@H](Cc3ccc(O)cc3)C(=O)N[C@@H](CCCNC(=N)N)C(N)=O)NC(=O)[C@H](CC(N)=O)NC(=O)[C@H](C(C)C)NC(=O)[C@H](Cc3ccccc3)NC2=O)cc1` [No. 1, [1-(β-mercapto-β,β-cyclopentamethylene-propionic acid)-2-(O-ethyl)-D-tyrosine-4-valine-7-tyrosine-8-arginine-desglycine]-vasopressin] ([dY](Et)FVNCYR-NH2; linker N-5 via X1): the Ki in test [1] was determined as 14 nM. On to `CCOc1ccc(C[C@H]2NC(=O)CC3(CCCCC3)SSC[C@@H](C(=O)N[C@@H](CCCNC(=N)N)C(=O)N[C@@H](Cc3ccc(O)cc3)C(N)=O)NC(=O)[C@H](CC(N)=O)NC(=O)[C@H](C(C)C)NC(=O)[C@H](Cc3ccccc3)NC2=O)cc1` [No. 2, [1-(β-mercapto-β,β-cyclopentamethylene-propionic acid)-2-(O-ethyl)-D-tyrosine-4-valine-7-arginine-8-tyrosine-9-desglycine]-vasopressin] ([dY](Et)FVNCRY-NH2; linker N-5 via X1), for which the Ki in test [1] turned out to be 23 nM; in test [2] it was 1.8 nM. In the case of `CCOc1ccc(C[C@H]2NC(=O)CC3(CCCCC3)SSC[C@@H](C(=O)N[C@@H](CCCNC(=N)N)C(=O)N[C@@H](CCCNC(=N)N)C(N)=O)NC(=O)[C@H](CC(N)=O)NC(=O)[C@H](C(C)C)NC(=O)[C@H](Cc3ccccc3)NC2=O)cc1` [compound 3] ([dY](Et)FVNCRR-NH2; linker N-5 via X1), in test [1], the Ki amounted to 2.7 nM. Still for that read-out and setting: then `CCOc1ccc(C[C@H]2NC(=O)CC3(CCCCC3)SSC[C@@H](C(=O)N[C@@H](CCCCN)C(=O)N[C@@H](CCCNC(=N)N)C(N)=O)NC(=O)[C@H](CC(N)=O)NC(=O)[C@H](C(C)C)NC(=O)[C@H](Cc3ccccc3)NC2=O)cc1` [compound 4] ([dY](Et)FVNCKR-NH2; linker N-5 via X1), with 8.8 nM.

In the case of `CCOc1ccc(C[C@H]2NC(=O)CC3(CCCCC3)SSC[C@@H](C(=O)N[C@@H](CCCNC(=N)N)C(N)=O)NC(=O)[C@H](CC(N)=O)NC(=O)[C@H](C(C)C)NC(=O)[C@H](Cc3ccccc3)NC2=O)cc1` [compound 5] ([dY](Et)FVNCR-NH2; linker N-5 via X1), the Ki in test [1] worked out at 11 nM; in test [2], 1.2 nM.

For the origin of these results see US4766108A, “Tyr-Arg-vasopressin antagonists” (Smith Kline Beckman Corporation, priority 1986, dated 1988).
